Measurements: patent US20240083861A1, “HSD17B13 INHIBITORS AND USES THEREOF” (FL2022-001, Inc., priority 2020, published 2024)

Molecular target: T1, Recombinant human HSD17B13 enzyme (Homo sapiens, UniProt Q7Z5P4)
T1 sequence (Q7Z5P4 20-300): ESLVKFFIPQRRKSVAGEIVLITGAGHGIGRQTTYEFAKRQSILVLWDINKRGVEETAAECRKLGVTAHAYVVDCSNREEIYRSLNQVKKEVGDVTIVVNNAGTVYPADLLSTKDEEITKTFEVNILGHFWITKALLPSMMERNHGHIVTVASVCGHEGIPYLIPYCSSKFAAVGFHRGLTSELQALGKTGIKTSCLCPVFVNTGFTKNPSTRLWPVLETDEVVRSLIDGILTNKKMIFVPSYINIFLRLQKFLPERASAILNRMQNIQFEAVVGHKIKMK
Experiment: HSD17b13 NAD(P)H-Glo biochemical assay
Conditions: 50 uM estradiol, 1 mM NAD+, NAD(P)H-Glo luminescence; read-out: HSD17β13 IC50
In short: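 Luminescent NAD(P)H-Glo read-out, taken after 1 hour at RT, measured cofactor reduction. Substrate and cofactor were estradiol at 50 uM and NAD+ at 1 mM final, reacted with the recombinant human enzyme for 3 hours at 37° C in 20 mM Tris pH7.4, 0.002% Tween-20, 0.02% BSA. Compound was pre-incubated with enzyme for 20 minutes at RT.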

SMILES	IC50 [µM]
Cc1c(N(C)C2CCOCC2)ncc2c(-c3cc(C(F)(F)F)c(F)c(O)c3F)nn(C)c12 [Compound 9.130, 3-(1,7-Dimethyl-6-(methyl(tetrahydro-2H-pyran-4-yl)amino)-1H-pyrazolo[4,3-c]pyridin-3-yl)-2,6-difluoro-5-(trifluoromethyl)phenol]	0.1 to 1
Cn1nc(-c2cc(C(F)(F)F)c(F)c(O)c2F)c2cnc(N3CCN(S(C)(=O)=O)C4(CCC4)C3)cc21 [Compound 9.134, 2,6-Difluoro-3-(1-methyl-6-(5-(methylsulfonyl)-5,8-diazaspiro[3.5]nonan-8-yl)-1H-pyrazolo[4,3-c]pyridin-3-yl)-5-(trifluoromethyl)phenol]	< 0.1
Cn1nc(-c2cc(C(F)(F)F)c(F)c(O)c2F)c2nnc(N3CCOCC34CC4)cc21 [Compound 9.138, 2,6-Difluoro-3-(1-methyl-6-(7-oxa-4-azaspiro[2.5]octan-4-yl)-1H-pyrazolo[4,3-c]pyridazin-3-yl)-5-(trifluoromethyl)phenol]	< 0.1
Cn1nc(-c2cc(C(F)(F)F)c(F)c(O)c2F)c2cnc(N3CCOC4(CC4)C3)cc21 [Compound 9.48, 2,6-Difluoro-3-(1-methyl-6-(4-oxa-7-azaspiro[2.5]octan-7-yl)-1H-pyrazolo[4,3-c]pyridin-3-yl)-5-(trifluoromethyl)phenol]	< 0.1
CC(=O)N1CCN(c2cc3c(cn2)c(-c2cc(C(F)(F)F)c(F)c(O)c2F)nn3C)C2(CC2)C1 [Compound 9.87, 1-(4-(3-(2,4-Difluoro-3-hydroxy-5-(trifluoromethyl)phenyl)-1-methyl-1H-pyrazolo[4,3-c]pyridin-6-yl)-4,7-diazaspiro[2.5]octan-7-yl)ethanone]	< 0.1
COCC1(N(C)c2cc3c(cn2)c(-c2cc(C(F)(F)F)c(F)c(O)c2F)nn3C)CCC1 [Compound 9.21, 2,6-Difluoro-3-(6-((1-(methoxymethyl)cyclobutyl)(methyl)amino)-1-methyl-1H-pyrazolo[4,3-c]pyridin-3-yl)-5-(trifluoromethyl)phenol]	< 0.1
Cn1nc(-c2cc(C(F)(F)F)c(F)c(O)c2F)c2cnc(N3CCN(S(C)(=O)=O)C4(COC4)C3)nc21 [Compound 18.112, 2,6-Difluoro-3-(1-methyl-6-(5-(methylsulfonyl)-2-oxa-5,8-diazaspiro[3.5]nonan-8-yl)-1H-pyrazolo[3,4-d]pyrimidin-3-y1)-5-(trifluoromethyl)phenol]	< 0.1
Cn1nc(-c2cc(C(F)(F)F)c(F)c(O)c2F)c2cnc(N3CCOCC3CC(=O)O)nc21 (stereo not shown) [Compound 18.40, 2-(4-(3-(2,4-Difluoro-3-hydroxy-5-(trifluoromethyl)phenyl)-1-methyl-1H-pyrazolo[3,4-d]pyrimidin-6-yl)morpholin-3-yl)acetic Acid]	0.1 to 1
O=C(NC12COC(C1)C2)c1ccc2oc(-c3cc(C(F)(F)F)c(F)c(O)c3F)nc2c1 [Compound 1.21, N-(2-Oxabicyclo[2.1.1]hexan-4-yl)-2-(2,4-difluoro-3-hydroxy-5-(trifluoromethyl)phenyl)benzo[d]oxa-zole-5-carboxamide]	0.1 to 1
CC(=O)N1CCC(N(C)c2cc3c(cn2)c(-c2cc(C(F)(F)F)c(F)c(O)c2F)nn3C)CC1 [Compound 9.66, 1-(4-((3-(2,4-Difluoro-3-hydroxy-5-(trifluoromethyl)phenyl)-1-methyl-1H-pyrazolo[4,3-c]pyridin-6-yl)(methyl)amino)piperidin-1-yl)ethanone]	< 0.1
CC(=O)N1CCN(c2ncc3c(-c4cc(C(F)(F)F)c(F)c(O)c4F)nn(C)c3n2)C2(CC2)C1 [Compound 18.129, 1-(4-(3-(2,4-Difluoro-3-hydroxy-5-(trifluoromethyl)phenyl)-1-methyl-1H-pyrazolo[3,4-d]pyrimidin-6-yl)-4,7-diazaspiro[2.5]octan-7-yl)ethan-1-one]	< 0.1
Cn1nc(-c2cc(C(F)(F)F)c(F)c(O)c2F)c2cnc(N3CCOC(c4ncon4)C3)nc21 (stereo not shown) [Compound 18.81, 3-(6-(2-(1,2,4-Oxadiazol-3-yl)morpholino)-1-methyl-1H-pyrazolo[3,4-d]pyrimidin-3-y1)-2,6-difluoro-5-(trifluoromethyl)phenol]	< 0.1
Cn1nc(-c2cc(C(F)(F)F)c(F)c(O)c2F)c2cnc(N3CCOC(c4nnc[nH]4)C3)nc21 (stereo not shown) [Compound 18.78, 3-(6-(2-(4H-1,2,4-Triazol-3-yl)morpholino)-1-methyl-1H-pyrazolo[3,4-d]pyrimidin-3-y1)-2,6-difluoro-5-(trifluoromethyl)phenol]	0.1 to 1
Cn1nc(-c2cc(C(F)(F)F)c(F)c(O)c2F)c2cnc(N3CCOC(C(N)=O)C3)nc21 (stereo not shown) [Compound 18.07, 4-(3-(2,4-Difluoro-3-hydroxy-5-(trifluoromethyl)phenyl)-1-methyl-1H-pyrazolo[3,4-d]pyrimidin-6-yl)morpholine-2-carboxamide]	< 0.1
Cn1nc(-c2cc(C(F)(F)F)c(F)c(O)c2F)c2cnc(N3CCN(S(C)(=O)=O)C4(CC4)C3)nc21 [Compound 18.62, 2,6-Difluoro-3-(1-methyl-6-(4-(methylsulfony1)-4,7-diazaspiro [2.5]octan-7-y1)-1H-pyrazolo[3,4-d]pyrimidin-3-y1)-5-(trifluoromethyl)phenol]	< 0.1
O=C(NC12CC(O)(C1)C2)c1ccc2oc(-c3cc(O)c(F)c(C(F)(F)F)c3)nc2c1 [Compound 1.11, 2-(4-Fluoro-3-hydroxy-5-(trifluoromethyl)phenyl)-N-(3-hydroxybicyclo[1.1.1]pentan-1-yl)benzo[d]oxazole-5-carboxamide]	0.1 to 1
Cn1nc(-c2cc(C(F)(F)F)c(F)c(O)c2F)c2cnc(N3CCS(=O)(=O)C(C)(C)C3)nc21 [Compound 18.54, 4-(3-(2,4-Difluoro-3-hydroxy-5-(trifluoromethyl)phenyl)-1-methyl-1H-pyrazolo[3,4-d]pyrimidin-6-yl)-2,2-dimethylthiomorpholine 1,1-dioxide]	< 0.1
Cn1nc(-c2cc(C(F)(F)F)c(F)c(O)c2F)c2cc(F)c(N3CCOC4(CCC4)C3)nc21 [Compound 9.108, 2,6-Difluoro-3-(5-fluoro-1-methyl-6-(5-oxa-8-azaspiro[3.5]nonan-8-yl)-1H-pyrazolo[3,4-b]pyridin-3-yl)-5-(trifluoromethyl)phenol]	< 0.1
CS(=O)(=O)N1CCN(c2ccc3c(-c4cc(C(F)(F)F)cc(O)c4F)n[nH]c3c2)CC1 [Compound 11, 2-Fluoro-3-(6-(4-(methylsulfonyl)piperazin-1-yl)-1H-indazol-3-yl)-5-(trifluoromethyl)phenol]	1 to 30
Cn1nc(-c2cc(C(F)(F)F)c(F)c(O)c2F)c2cnc(N3CCOC(C4CCCCC4)C3)nc21 (stereo not shown) [Compound 18.113, 3-(6-(2-Cyclohexylmorpholino)-1-methyl-1H-pyrazolo[3,4-d]pyrimidin-3-yl)-2,6-difluoro-5-(trifluoromethyl)phenol]	< 0.1
Cn1nc(-c2cc(C(F)(F)F)c(F)c(O)c2F)c2cnc(N3CCC4(CCN4)CC3)nc21 [Compound 18.24, 2,6-Difluoro-3-(1-methyl-6-(1,7-diazaspiro[3.5]nonan-7-yl)-1H-pyrazolo[3,4-d]pyrimidin-3-y1)-5-(trifluoromethyl)phenol]	0.1 to 1
Cn1nc(-c2cc(C(F)(F)F)c(F)c(O)c2F)c2cnc(N3CC(C)(C#N)C3)nc21 [Compound 9.09, 1-(3-(2,4-Difluoro-3-hydroxy-5-(trifluoromethyl)phenyl)-1-methyl-1H-pyrazolo[3,4-d]pyrimidin-6-yl)-3-methylazetidine-3-carbonitrile]	0.1 to 1
